Values of other authors as cited in patent US9757705B2, “Method for production of concentrates of preferably water-soluble active agents” (KWIZDA AGRO GMBH, priority 2013, dated 2017).

Conditions: at 20° C.; according to literature

C/C(=N\C#N)N(C)Cc1ccc(Cl)nc1 [Acetamiprid]
solubility: 400 mg/100 ml
